Measurements from patent US12290521B2, “Methods and materials for identifying and treating BET inhibitor-resistant cancers” (Mayo Foundation for Medical Education and Research, priority 2018, dated 2025).

Legend:
22Rv1 cells = assay: Cell proliferation assay (MTS) and trypan blue assay; type: cell-based, human; details: JQ1 0.25 μM every other day
Experimental: CellTiter 96® AQueous One Solution Cell Proliferation Assay (MTS) (Promega) was used to measure cell growth according to the manufacturer's instructions. Briefly, cells were plated in 96-well plates at a density of 2,000 cells per well. At the indicated times, 20 μL of Cell Titer 96R Aqueous One Solution Reagent was added to medium. After incubating for 1 hour at 37° C. in the cell incubator, cell growth was measured in a microplate reader at 490 nm.
Trypan blue assay was performed to measure cell growth according to the manufacturer's instructions. Briefly, cells were plated in 6-well plates at a density of about 5×10^4 to about 1×10^5 cells per well. At the indicated time points, cells were trypsinized and suspended in 1 mL 1×PBS. 100 μL cells and 100 μL trypan blue solution (Sigma-Aldrich) were mixed, and the number of viable cells was measured using the Bio-Rad automated cell counter.

SPOP and BRD2/3/4 = assay: Western blot, co-IP and in vivo ubiquitination assay in 293T cells; type: cell-based, human; details: JQ1 1 μM, 24 hours
Experimental: To immunoprecipitate the ectopically expressed FLAG-tagged proteins, transfected cells were lysed 24 hours post-transfection in BC100 buffer. The whole-cell lysates were immunoprecipitated with the monoclonal anti-FLAG antibody-conjugated M2 agarose beads (Sigma-Aldrich) at 4° C. overnight. After three washes with lysis buffer, followed by two washes with BC100 buffer, the bound proteins were eluted using FLAG-Peptide (Sigma-Aldrich) prepared in BC100 for 3 hours at 4° C. The eluted protein sample was resolved by SDS-PAGE. To immunoprecipitate the endogenous proteins, cells were lysed with 1× cell lysis buffer (Cell Signaling Technology), and the lysate was centrifuged. The supernatant was precleared with protein A/G beads (Sigma-Aldrich) and incubated with the indicated antibody and protein A/G beads at 4° C. overnight. Beads were washed five times with lysis buffer and resuspended in sample buffer and analyzed by SDS-PAGE.
Cell lysates or immunoprecipitates were subjected to SDS-PAGE, and proteins were transferred to nitrocellulose membranes (GE Healthcare Sciences). The membranes were blocked in Tris-buffered saline (TBS, pH 7.4) containing 5% non-fat milk and 0.1% Tween-20, washed twice in TBS containing 0.1% Tween-20, and incubated with primary antibody overnight at 4° C., followed by secondary antibody for 1 hour at room temperature. The proteins of interest were visualized using ECL chemiluminescence system (Santa Cruz Biotechnology). Densitometry analysis of protein bands was analyzed on the Gel-Pro Analyzer software.
For the in vivo ubiquitination assay, C4-2 cells were transfected with plasmids for HA-Ub, FLAG-BRD4, and other indicated proteins. C ells were treated with 20 μM MG132 for 8 hours before being harvested and lysed with lysis buffer (50 mM Tris-HCl, pH 7.5, 150 mM NaCl, 1% NP40, 0.5% sodium deoxycholate, 1× protease inhibitor cocktail (PIC)). The lysate was subjected to co-immunoprecipitation using anti-FLAG-conjugated agarose beads as described in the Co-IP assay.

C4-2 xenograft tumors = assay: Prostate cancer xenografts in NSG mice; type: in vivo; details: SPOP-F133V C4-2 xenografts; JQ1 50 mg/kg i.p. 5 days a week, day 21
Experimental: 6-week-old NOD-SCID IL-2-receptor gamma null (NSG) mice were generated and randomly divided into different experimental groups as indicated. All mice were housed in standard conditions with a 12-hour light/dark cycle and access to food and water ad libitum. For BRD2/3/4 knockdown studies, C4-2 cells (5×10^6), infected with lentivirus expressing empty vector (EV) or HA-SPOP-F133V mutant in combination with control shRNA or BRD2/3/4-specific shRNA, were mixed with Matrigel (in 100 μL 1×PBS plus 100 μL Matrigel (BD Biosciences)) and injected s.c. into the right flank of mice. After xenografts reached the size of about 100 mm^3, vehicle (10% beta cyclodextrin) or JQ1 (Sigma-Aldrich) at 50 mg/kg body weight was administered by i.p. injection 5 days a week. For studies with tumors treated with JQ1 and AKT inhibitor GDC-0068, C4-2 cells (5×10^6) infected with lentivirus expressing empty vector (EV) or HA-SPOP-F133V mutant were mixed with Matrigel (in 100 μL 1×PBS plus 100 μL Matrigel (BD Biosciences)) and injected s.c. into the right flank of mice. […] Growth in tumor volume was measured in a blinded fashion using digital caliper, and tumor volumes were estimated using the formula (L×W2)/2, where L is length of tumor and W is width. The volumes of tumors were compared, and P values were determined by a two-tailed Student's t test. […]

DU145 cells = assay: Cell proliferation (MTS assay); type: cell-based, human; details: JQ1 2 μM
Experimental: Cell proliferation was measured by using the MTS assay (Promega). Prostate cancer cells (2,000 per well) were seeded in 96-well plates with 100 μL of culture medium. Each well was added with 20 μL of CellTiter 96R AQueous One Solution Reagent (Promega) and absorbance was measured in a microplate reader at 490 nm.
The cells then were treated with vehicle (DMSO), a CBP/p300 inhibitor (CPI-637; iCBP; 20 μM), or a BET inhibitor (JQ1; 2 μM) alone or a combination of CPI-637 and JQ1. After 72 hours, cells were subjected to measurement of cell growth by an MTS assay. In each cell type (EV and F133V), the OD value in each group was normalized by the value in the control (vehicle) group.

DUB3 = details: Borbely et al., Oncotarget 2015; cited from earlier work

SMILES: Cc1sc2c(c1C)C(c1ccc(Cl)cc1)=N[C@@H](CC(=O)OC(C)(C)C)c1nnc(C)n1-2 [JQ1]
- cell growth (22Rv1 cells; EV-expressing 22Rv1 cells): inhibited growth
- effect on cell growth (22Rv1 cells; SPOP-F133V-expressing 22Rv1 cells): largely impeded
- SPOP-BRD2/3/4 protein interaction (SPOP and BRD2/3/4): diminished
- SPOP-induced BRD2/3/4 ubiquitination and degradation (SPOP and BRD2/3/4): partially blocked
- xenograft tumor growth (C4-2 xenograft tumors): JQ1-resistance
- sensitivity of cell growth to JQ1 (DU145 cells; DUB3-knockdown DU145 cells versus control knockdown cells): much more sensitive
- resistance of cell growth by DUB3 overexpression (DU145 cells; DUB3-overexpressing DU145 cells): conferred resistance
- sensitivity of cell growth to JQ1 (DU145 cells; SPOP F133V-expressing DU145 cells): JQ1 resistance
- sensitivity of cell growth to JQ1 after DUB3 knockdown (DU145 cells; SPOP-F133V cells with DUB3 shRNA): sensitized
- DUB3 mRNA level (DUB3): rapid upregulation
